These results are taken from patent US6894059B1, “Compounds and methods for treatment of asthma, allergy and inflammatory disorders” (UCB S.A., priority 1999, dated 2005).

For experiment [1], the target named is T1, human cloned H1 receptor (Homo sapiens, UniProt P35367).
T1 construct: expressed in transfected cells; host or cells: CHO-K1
The experiment can be described thus: CHO-K1 H1R binding assay (3H-pyrilamine displacement). The conditions noted are these: CHO-K1 membranes, 3H-pyrilamine 2 nM, 3 hours at 37° C.; read-out: CHOH1 KI.
Protocol: CHO—K1 cells expressing the human cloned H1 receptor are grown to confluence in tissue culture dishes. Cells are harvested using D-PBS buffer (JRH Biosciences), kept at 4° C., centrifuging to pellet cells (4° C., 500 g, 10 min). The final cell pellet is homogenized and resuspended using Tris/sucrose buffer (20 mM Tris, 250 mM sucrose, pH 74 at 4° C. Aliquots of the membrane preparation are stored at −70° C.
On the day of assay, the membrane preparation is thawed and centrifuged (TLA100.3 rotor, 4° C., 15 min, 23,000 rpm). The pellet is resuspended in Tris/sucrose buffer initially and then diluted further as necessary using assay buffer A (50 mM Na/KPO4, 2 mM MgCl2, 0.5% (w/v) BSA, pH 7.5).
For the binding assay, the membrane preparation, test compound and ^3H-pyrilamine (2 nM final) in buffer A with 1% (v/v) DMSO final are incubated in a 96-well polypropylene plate for 3 hours at 37° C. Non-specific binding is determined in the presence of 10 μM pyrilamine. A 96-well harvester (Packard) is used to harvest the 96-well plate onto a GF/B filter plate pre-treated with 0.1% (v/v) PEI. The plate is counted in a Packard Topcounter after adding Microscint 20 (Packard) scintillation fluid. The Ki for each compound at the histamine H1 receptor is then calculated from these counts.

Experiment [2] concerns the target T2, human 5-lipoxygenase enzyme (Homo sapiens, UniProt P09917).
T2 construct: Blood is drawn from normal human volunteers into tubes containing heparin; endogenous in cells; host or cells: human whole blood, heparinized, stimulated with A23187
T2 sequence (P09917 1-674): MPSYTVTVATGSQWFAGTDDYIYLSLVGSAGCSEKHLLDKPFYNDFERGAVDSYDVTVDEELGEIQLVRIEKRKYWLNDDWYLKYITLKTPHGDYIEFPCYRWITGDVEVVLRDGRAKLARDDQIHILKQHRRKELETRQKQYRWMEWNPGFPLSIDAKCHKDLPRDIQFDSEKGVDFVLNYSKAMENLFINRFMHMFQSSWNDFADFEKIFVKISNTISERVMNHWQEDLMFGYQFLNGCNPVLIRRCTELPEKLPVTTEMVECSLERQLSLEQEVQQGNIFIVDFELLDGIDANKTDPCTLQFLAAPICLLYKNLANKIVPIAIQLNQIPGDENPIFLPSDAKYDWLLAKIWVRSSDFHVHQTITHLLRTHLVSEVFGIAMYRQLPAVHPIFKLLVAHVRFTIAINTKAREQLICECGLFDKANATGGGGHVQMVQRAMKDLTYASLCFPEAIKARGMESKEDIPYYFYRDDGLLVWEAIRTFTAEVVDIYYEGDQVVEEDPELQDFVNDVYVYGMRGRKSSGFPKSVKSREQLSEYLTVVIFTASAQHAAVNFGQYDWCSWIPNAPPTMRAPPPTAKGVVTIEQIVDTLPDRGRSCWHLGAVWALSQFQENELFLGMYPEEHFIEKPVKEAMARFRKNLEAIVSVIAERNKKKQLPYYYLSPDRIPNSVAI
The experiment can be described thus: Inhibition of LTB4 production in human whole blood stimulated with calcium ionophore A23187. It counts as cell-based. The conditions noted are these: A23187 50 μM, LTB4 by EIA, read-out: HWB IC50. The procedure:
This assay examines the ability of a compound to inhibit leukotriene B4 Production from human blood stimulated with calcium ionophore. As this production of leukotriene B4 is mediated via the activation of the 5-lipoxygenase enzyme, this assay is predictive of a compound's ability to inhibit the human 5-lipoxygenase enzyme.
The procedure for the assay is as follows. Blood is drawn from normal human volunteers into tubes containing heparin. 1 ml of the heparinized blood is pipetted into a 1.5 ml polypropylene tube. To this sample is added either different concentrations of the test compound (5 μl) dissolved in DMSO or 5 μl of DMSO as a vehicle control. These samples are incubated in a water bath, at […] for 15 min. […] From this a percent inhibition of LTB4 production by each concentration of test compound is calculated and the IC50 for inhibition of LTB4 production for each test compound is determined.

T1 sequence (P35367 whole entry): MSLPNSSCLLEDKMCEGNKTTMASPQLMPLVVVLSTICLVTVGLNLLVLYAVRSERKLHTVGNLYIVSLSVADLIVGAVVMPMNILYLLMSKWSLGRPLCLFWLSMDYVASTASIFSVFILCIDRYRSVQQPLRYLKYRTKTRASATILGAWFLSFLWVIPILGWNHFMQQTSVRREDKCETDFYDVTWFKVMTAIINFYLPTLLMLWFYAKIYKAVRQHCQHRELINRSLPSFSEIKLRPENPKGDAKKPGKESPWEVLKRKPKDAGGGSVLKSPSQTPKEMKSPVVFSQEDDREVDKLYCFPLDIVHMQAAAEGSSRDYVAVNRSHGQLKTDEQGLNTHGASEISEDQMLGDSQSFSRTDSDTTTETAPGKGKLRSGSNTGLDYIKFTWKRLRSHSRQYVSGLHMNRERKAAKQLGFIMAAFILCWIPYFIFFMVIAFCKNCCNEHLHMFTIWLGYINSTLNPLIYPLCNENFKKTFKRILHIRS

Turning to `NC(=O)N(O)CCOCCN1CCN([C@@H](c2ccccc2)c2ccc(Cl)cc2)CC1` [Compound 22, N-[2-(2-{4-[(1R)(4-chlorophenyl)phenylmethyl]piperazinyl}ethoxy)ethyl] amino-N-hydroxyamide], the Ki in experiment [1] came to 8 nM. Moreover, the IC50 in experiment [2] came out at 1470 nM.

In the case of `C[C@@H](c1ccc(OCCN2CCN(C(c3ccc(F)cc3)c3ccc(F)cc3)CC2)cc1)N(O)C(N)=O` (racemic) [Compound 11, amino-N-{[4-(2-{4-[bis(4-fluorophenyl)methyl]piperazinyl}ethoxy)phenyl]ethyl}-N-hydroxyamide], the Ki in experiment [1] was 130 nM. In addition, the IC50 in experiment [2] was determined as 3630 nM.
